In patent US20080044419A1, “Treatment of T Cell Mediated Diseases by Inhibition of Fgfr3” (Fibron Ltd., priority 2003, published 2008):

Key:
[1] = system: Collagen Induced Arthritis (CIA) mice; test: Murine Collagen Induced Arthritis (CIA) model, paw edema; type: in vivo; conditions: i.p. daily injections
Method: Murine collagen-induced arthritis (CIA) is considered a useful model for studying human RA since the two diseases share numerous pathologic, immunological, and genetic features. The CIA model in mice results in a symmetric polyarthritis in which bone and cartilage erosion typically occur, 2-4 weeks after immunization with […] type II collagen on complete Freud's adjuvant (CFA).
Male DBA/l mice (8-10 weeks old) were subject to an intradermal injection at the base of the tail with 200 μg type II collagen purified from bovine articular cartilage emulsified in CFA. The mice received a booster injection of 200 μg type II collagen emulsified in CFA three weeks after the first dose.
The mice were checked daily and each animal with edema in one or more limbs was randomly assigned to one of several groups for further treatment. The thickness of each affected hind paw was measured with microcalipers. The results are expressed as a direct measure of paw width in millimeters.
Each mouse was injected intraperitoneally on the day following disease onset (day 1) with 100 ug anti-FGFR3-ScFv or anti-FGFR3 Fab′ or 20 mg/kg of a FGFR3 specific tyrosine kinase (TK) inhibitor (SU5402, Calbiochem, La Jolla, Calif.), followed by daily injections with 300 μg anti-FGFR3 ScFv or anti-FGFR3 Fab′ or with 20 mg/kg SU5402.

[2] = system: cutaneous delayed type hypersensitivity reactions in mice; test: Delayed type hypersensitivity (DTH) assay, oxazolone, ear thickness; type: in vivo; conditions: treated mice, oxazolone challenge, measured after 24 hours
Method: The mouse model for cutaneous delayed type hypersensitivity reactions was used to investigate the effects of FGFR3 inhibitors on induced skin inflammation. Oxazolone solutions (2% and 0.5%) were prepared by dissolving 200 and 50 mg, respectively, of oxazolone in 8 ml of acetone and 2 ml of olive oil. Mice were challenged with oxazolone by topical application onto the abdomen of each mouse (100 μl of 2% oxazolone) followed by 10 μl of 0.5% oxazolone on the right ear after 6 days. Differences between right and left ear thickness, indicating DTH development, were measured after 24 hours using a microcaliper.

**Q.** For `Cc1c[nH]c(/C=C2\C(=O)Nc3ccccc32)c1CCC(=O)O` [SU5402], which “reduction in paw edema” value [1] is on record?
**A.** Its value is “significant reduction”.

**Q.** And the “DTH reaction: induction of edema (ear thickness difference)” value [2]?
**A.** The value was “no induction of edema”.
